We go through 47 molecules from ChEMBL document CHEMBL1123279, “Beta 1-selective adrenoceptor antagonists: examples of the 2-[4-[3-(substituted amino)-2-hydroxypropoxy]phenyl]imidazole class. 2” (J Med Chem, 1986).

The subject of series [1] is Rattus norvegicus. Description: Intrinsic sympathomimetic activity (ISA) in the reserpinized normotensive anesthetized rats following intravenous administration at 1000 ug/kg. Type of series: functional.
A short description of series [2]: Dissociation constant (pKa). Type of series: physicochemical.
Series [3] is described as follows: Partition coefficient (logD7.4). Type of series: physicochemical. Conditions: octanol/water, pH 7.4.
For series [4], the system named is Rattus norvegicus. The series is described as follows: Intrinsic sympathomimetic activity (ISA) measured as max. increase in heart rate over 60 min in reserpinized normotensive anesthetized rats at 1000 ug/kg iv. Type of series: functional. Details: unit not given here.
Series [5] has as its system Rattus norvegicus. Description: Effective dose was evaluated following intravenous administration in reserpinized normotensive anesthetized rats. Type of series: functional.
Series [6] concerns the target Beta-1 adrenergic receptor (Cavia porcellus, UniProt B0FL73). Description: In vitro inhibitory activity against beta-1 adrenergic receptor was measured by the inhibition of the positive chronotropic effect of isoproterenolin in isolated guinea pig atria. The note with it: read-out: pA2 (converted).
Series [7] deals with Beta-2 adrenergic receptor (Cavia porcellus) (UniProt Q8K4Z4).
In series [8] the test system is Rattus norvegicus. Description: Intrinsic sympathomimetic activity (ISA) measured as max increase in heart rate over 60 min in the reserpinized normotensive anesthetized rats at 1000 ug/kg iv. Type of series: functional.

The source made the active and inactive calls. The calls are words filed in the database; no cut-off is given here.

Usually pKa stands for the pH at which an ionisable group is half protonated. One may read the logD as the decadic logarithm of the distribution of all forms, ionised or not, between an organic phase and buffer at a given pH. In general, ED50 refers to the midpoint of the dose-response relation.

Chain of Beta-1 adrenergic receptor (B0FL73 whole entry): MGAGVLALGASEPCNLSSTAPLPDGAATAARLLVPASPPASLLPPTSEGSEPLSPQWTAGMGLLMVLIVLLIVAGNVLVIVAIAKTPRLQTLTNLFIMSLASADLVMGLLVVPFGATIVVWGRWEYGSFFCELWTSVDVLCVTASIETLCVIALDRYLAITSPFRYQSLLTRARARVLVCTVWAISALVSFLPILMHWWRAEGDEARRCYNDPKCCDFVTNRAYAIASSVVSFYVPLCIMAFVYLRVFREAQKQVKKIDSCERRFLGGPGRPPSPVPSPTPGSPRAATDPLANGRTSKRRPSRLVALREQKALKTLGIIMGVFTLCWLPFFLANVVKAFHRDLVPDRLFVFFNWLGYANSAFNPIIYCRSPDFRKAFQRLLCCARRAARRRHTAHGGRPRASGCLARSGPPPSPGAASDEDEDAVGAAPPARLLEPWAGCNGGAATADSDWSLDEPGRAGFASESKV
Chain of Beta-2 adrenergic receptor (Cavia porcellus) (Q8K4Z4 whole entry, looked up): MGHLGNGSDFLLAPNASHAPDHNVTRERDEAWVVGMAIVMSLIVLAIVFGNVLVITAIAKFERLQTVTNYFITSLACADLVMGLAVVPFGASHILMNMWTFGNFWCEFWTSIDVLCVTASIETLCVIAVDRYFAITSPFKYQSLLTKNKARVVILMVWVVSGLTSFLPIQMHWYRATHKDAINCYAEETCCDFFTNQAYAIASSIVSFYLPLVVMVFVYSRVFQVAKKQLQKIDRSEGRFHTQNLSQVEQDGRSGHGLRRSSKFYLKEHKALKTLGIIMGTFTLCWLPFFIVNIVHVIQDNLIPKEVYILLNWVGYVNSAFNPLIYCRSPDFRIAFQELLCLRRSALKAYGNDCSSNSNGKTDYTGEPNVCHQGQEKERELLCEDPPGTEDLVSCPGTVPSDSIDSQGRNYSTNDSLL

The molecule `COc1ccc(CCNCC(O)COc2ccc(-c3nc(C)c(Cl)[nH]3)cc2)cc1OC` (stereo not drawn) registered a Max increase in series [1] of 19. For the same molecule, the pKa in series [2] was found to be 3.62. In addition, the pH-dependent lipophilicity (logD) in series [3] is 1.88.
`COc1ccc(CCNCC(O)COc2ccc(-c3nccs3)cc2)cc1OC` (stereo not drawn) gave a Max increase in series [4] of 70. The molecule further had a pH-dependent lipophilicity (logD) in series [3] of 0.505.
`COc1ccc(CCNCC(O)COc2ccc(-c3nc(Br)c[nH]3)cc2)cc1OC` (stereo not drawn) returned a 50% effective dose (ED50) in series [5] of 0.0064 mg/kg. Besides, the pKa in series [2] turned out to be 3.65. Besides, the log distribution coefficient (logD) in series [3] was 1.24.
Regarding `CC(C)NCC(O)COc1ccc(Cc2nc(Br)c[nH]2)cc1` (stereo not drawn), the Kb in series [6] is 3.16 nM. The Max increase in series [4] is on record as 7. In addition, the pKa in series [2] stood at 3.75. In series [3], the pH-dependent lipophilicity (logD) was 0.204.
`COc1ccc(CCNCC(O)COc2ccc(-c3nc(-c4cccs4)c[nH]3)cc2C)cc1OC` (stereo not drawn) yielded a Max increase in series [4] of 21. In series [2], this molecule registered a pKa of 4.55. The molecule further showed a log distribution coefficient (logD) in series [3] of 2.76.
`OC(CNCCc1ccncc1)COc1ccc(-c2nc(-c3cccs3)c[nH]2)cc1` (stereo not drawn) returned an ED50 in series [5] of 0.0654 mg/kg. The pKa in series [2] amounted to 3.8. The log distribution coefficient (logD) in series [3] was 1.9.
The molecule `COc1ccc(CCNCC(O)COc2ccc(-c3nc(-c4cccs4)c[nH]3)cc2)cc1OC` (stereo not drawn) displayed a median effective dose (ED50) in series [5] of 0.0479 mg/kg.
In series [4], `COCCc1c[nH]c(-c2ccc(OCC(O)CNCCc3ccc(OC)c(OC)c3)cc2)n1` (stereo not drawn) had a Max increase of 75. For the same molecule, the pKa in series [2] was found to be 5.9. Further, the pH-dependent lipophilicity (logD) in series [3] is 1.32.
The molecule `COc1ccc(CCNCC(O)COc2ccc(OCc3ncc[nH]3)cc2)cc1OC` (stereo not drawn) returned a pKa in series [2] of 5.2. For the same molecule, the pH-dependent lipophilicity (logD) in series [3] was 0.663.
The molecule `COc1ccc(CCNCC(O)COc2ccc(CCc3nc(-c4cccs4)c[nH]3)cc2)cc1OC` (stereo not drawn) displayed a Max increase in series [4] of 0. Moreover, the pKa in series [2] came out at 5.45. Further, the log distribution coefficient (logD) in series [3] is 1.53.
For `COc1ccc(CCNC[C@H](O)COc2ccc(Cc3nc(C(C)=O)c[nH]3)cc2)cc1OC` the same measures were 0, 3.95 and 0.301.
`CCOCCNC[C@H](O)COc1ccc(-c2nc(-c3cccs3)c[nH]2)cc1` yielded a 50% effective dose (ED50) in series [5] of 0.0784 mg/kg. Also, the pKa in series [2] was determined as 4.6. Also, the logD in series [3] was 1.86.
As to `CC(C)NCC(O)COc1ccc(-c2ncc[nH]2)cc1` (stereo not drawn), the Max increase in series [4] is reported as 53. In series [2], this molecule returned a pKa of 5.65. Besides, in series [3], the pH-dependent lipophilicity (logD) was -0.569.
`COCc1c[nH]c(-c2ccc(OCC(O)CNCCc3ccc(OC)c(OC)c3)cc2)n1` (stereo not drawn): in series [7], the pA2 entry was “Active”. Moreover, the Max increase in series [4] is 38. This molecule had a pKa in series [2] of 5.64. The logD in series [3] was 0.799.
`CC(C)NCC(O)COc1ccc(-c2nc(C(C)C)c[nH]2)cc1` (stereo not drawn) had a pKa in series [2] of 6.32. In addition, the log distribution coefficient (logD) in series [3] was 0.952.
Take `N#Cc1ccccc1OCC(O)CNCCNC(=O)Nc1ccccc1.O` (stereo not drawn): in series [5], the 50% effective dose (ED50) was found to be 0.0029 mg/kg.
Molecule `CC(C)NCC(O)COc1ccc(-c2nc(-c3cccs3)c[nH]2)cc1` (stereo not drawn) came in with a pKa in series [2] of 4.9. Moreover, the logD in series [3] is 1.18.
`COc1ccc(CCNCC(O)COc2ccc(-c3nccn3C)cc2)cc1OC.Cl.Cl` (stereo not drawn) returned a Max increase in series [4] of 47. In series [2], this molecule yielded a pKa of 6.7. This molecule also showed a pH-dependent lipophilicity (logD) in series [3] of 0.881.
Turning to `COc1ccc(CCNCC(O)COc2ccc(-c3nc(C)c[nH]3)cc2Br)cc1OC` (stereo not drawn), in series [2], the pKa came out at 5.7. In addition, the log distribution coefficient (logD) in series [3] was 1.6.
In the case of `COc1ccc(CCNCC(O)COc2ccc(-c3ncco3)cc2)cc1OC` (stereo not drawn), the Max increase in series [4] was 19. The molecule also came in with a pKa in series [2] of 8.4. In series [3], the pH-dependent lipophilicity (logD) is 1.6.
`CCOCc1c[nH]c(-c2ccc(OCC(O)CNCCc3ccc(OC)c(OC)c3)cc2)n1` (stereo not drawn) came in with a Max increase in series [4] of 27. The molecule further came in with a pKa in series [2] of 5.25. This molecule had a pH-dependent lipophilicity (logD) in series [3] of 0.312.
In series [2], `O=C(NCCNCC(O)COc1ccc(-c2ncc[nH]2)cc1)Nc1ccccc1` (stereo not drawn) displayed a pKa of 5.75. Besides, the logD in series [3] is 0.778.
Turning to `COc1ccc(CCNCC(O)COc2ccc(-c3nc(-c4cccs4)c[nH]3)cc2Cl)cc1OC` (stereo not drawn), the Max increase in series [4] stood at 19. This molecule also came in with a pKa in series [2] of 4.02. This molecule showed a pH-dependent lipophilicity (logD) in series [3] of 2.34.
Turning to `CCCNCC(O)COc1ccc(-c2nc(-c3cccs3)c[nH]2)cc1` (stereo not drawn), the pKa in series [2] was 4.79. Moreover, in series [3], the log distribution coefficient (logD) is 1.41.
For the molecule `COc1ccc(CCNCC(O)COc2ccc(-c3nc(C(C)(C)C)c[nH]3)cc2)cc1OC` (stereo not drawn), the Max increase in series [4] was 48. The pKa in series [2] turned out to be 6.2. The molecule also showed a logD in series [3] of 2.09.
In the same order, the values of `COc1ccc(CCNCC(O)COc2ccc(-c3nc(C(C)C)c[nH]3)cc2)cc1OC` (stereo not drawn) are 24, 6.78 and 1.79.
In the same order, the values of `COc1ccc(CCNCC(O)COc2ccc(-c3nc(C(C)=O)c(C)[nH]3)cc2)cc1OC` (stereo not drawn) are 24, 4 and 1.28.
The molecule `COc1ccc(CCNCC(O)COc2ccc(-c3nc(CN4CCOCC4)c[nH]3)cc2)cc1OC` (stereo not drawn) displayed a Max increase in series [4] of 30. In series [2], the pKa was 3.54. Besides, the pH-dependent lipophilicity (logD) in series [3] is 0.215.
For `CCOC(=O)c1c[nH]c(-c2ccc(OCC(O)CNCCc3ccc(OC)c(OC)c3)cc2)n1` (stereo not drawn) the same measures were 60, 3.8 and 1.41.
On to `COc1ccc(CCNC[C@H](O)COc2ccc(-c3nc(C(C)=O)c[nH]3)cc2)cc1OC`, for which the 50% effective dose (ED50) in series [5] came to 0.0074 mg/kg. In series [2], this molecule showed a pKa of 3.6. The same molecule had a logD in series [3] of 0.694.
In series [4], `COc1ccc(CCNCC(O)COc2ccc(Cc3nc(C)c[nH]3)cc2)cc1OC` (stereo not drawn) displayed a Max increase of 0. Further, the pKa in series [2] came to 7.01. Further, the logD in series [3] is 0.301.
As to `COc1ccc(CCNCC(O)COc2ccc(CCc3nc(Br)c[nH]3)cc2)cc1OC` (stereo not drawn), the pKa in series [2] stood at 3.65. The log distribution coefficient (logD) in series [3] worked out at 1.
For `COc1ccc(CCNCC(O)COc2ccc(-c3nc(C)c[nH]3)cc2OC)cc1OC` (stereo not drawn) the same measures were 6.35 and 0.968.
In the same order, the values of `CCOCCNCC(O)COc1ccc(-c2nc(-c3cccs3)c[nH]2)cc1` (stereo not drawn) are 4.5 and 1.78.
As to `COc1ccc(CCNCC(O)COc2ccc(-c3nc(C)c(C)[nH]3)cc2)cc1OC` (stereo not drawn), the Max increase in series [4] is 19. The same molecule yielded a pKa in series [2] of 6.72. This molecule also gave a logD in series [3] of 1.02.
Molecule `COc1ccc(CCNCC(O)COc2ccc(COCc3ncc[nH]3)cc2)cc1OC` (stereo not drawn) came in with a Max increase in series [4] of 2. The same molecule displayed a pKa in series [2] of 5.5. In series [3], the logD was 0.633.
In series [4], `COc1ccc(CCNC[C@H](O)COc2ccc(-c3nc(-c4cccs4)c[nH]3)cc2)cc1OC.Cl.Cl` displayed a Max increase of 19.
Take `COc1ccc(CCNCC(O)COc2ccc(-c3nc(Cl)c[nH]3)cc2)cc1OC` (stereo not drawn): the Max increase in series [4] was determined as 42. The same molecule displayed a pKa in series [2] of 3.48. The molecule also showed a logD in series [3] of 1.61.
In the case of `COCc1[nH]c(-c2ccc(OCC(O)CNCCc3ccc(OC)c(OC)c3)cc2)nc1C` (stereo not drawn), in series [2], the pKa is 4.92. The logD in series [3] was 0.839.
Molecule `COc1ccc(CCNCC(O)COc2ccc(-c3nc(C(N)=O)c[nH]3)cc2)cc1OC` (stereo not drawn) yielded a Max increase in series [4] of 47. In addition, in series [2], the pKa worked out at 3.6. The same molecule showed a logD in series [3] of 0.279.
With `COc1ccc(CCNCC(O)COc2ccc(-c3nc(Br)c(C)[nH]3)cc2)cc1OC` (stereo not drawn), the Max increase in series [1] is listed as 23. Also, the pKa in series [2] came out at 5.8. In addition, the pH-dependent lipophilicity (logD) in series [3] was 1.98.
In turn, `CCCCNC(=O)NCCNCC(O)COc1ccc(-c2nc(C)c[nH]2)cc1` (stereo not drawn) had a pKa in series [2] of 3.6. The molecule also showed a log distribution coefficient (logD) in series [3] of 0.699.
For `COc1ccc(CCNCC(O)COc2ccc(-c3nc(CO)c[nH]3)cc2)cc1OC` (stereo not drawn) the same measures were 5.55 and 0.
`COc1ccc(CCNC[C@H](O)COc2ccc(-c3nc(C(C)(C)C)c[nH]3)cc2)cc1OC` yielded a Max increase in series [8] of 21. This molecule also yielded a pKa in series [2] of 6.42. The same molecule gave a logD in series [3] of 2.2.
With `COc1ccc(CCNCC(O)COc2ccc(-c3nc(Br)c[nH]3)cc2Cl)cc1OC` (stereo not drawn), the Max increase in series [4] came out at 48. Also, the pKa in series [2] came out at 3.3. The logD in series [3] was 2.31.
For `COc1ccc(CCNCC(O)COc2ccc(Cc3nc(-c4cccs4)c[nH]3)cc2)cc1OC` (stereo not drawn) the same measures were 3, 4.99 and 1.58.
In series [2], `Cc1c[nH]c(Cc2ccc(OCC(O)CNC(C)(C)C)cc2)n1` (stereo not drawn) registered a pKa of 6.93. In series [3], the logD was -0.638.
